{"source": "patent US4873250A", "about": "“Antimicrobial compound and compositions particulary effective against candida albicans” (The University of Mississippi, priority 1988, dated 1989)", "key": {"[1]": {"tested_on": "Candida albicans", "details": "reported in Journal of Natural Products, Vol. 50, No. 5, pp. 961-964, 1987; cited from earlier work"}, "[2]": {"tested_on": "Candida albicans B311", "assay": "Minimum inhibitory concentration (MIC), twofold serial broth dilution assay, Candida albicans B311", "type": "cell-based", "details": "yeast nitrogen broth, 24 and 48 hours at 37°", "protocol": "(§1) The method used to determine the minimum inhibitory concentration (MIC) of the inventive compound was a twofold serial broth dilution assay in yeast nitrogen broth. In addition to Candida albicans B311, the MIC values for onychine were also determined for two additional strains of Candida albicans: ATCC 10231 and a clinical isolate, designated WH. Also tested were Mycobacterium smegmatis 607, Bacillus subtilis, 6633, Cryptococcus neoformans 32264, Aspergillus flavus 9170, Aspergillus fumigatus 26934, and Trichophyton mentagrophytes 9972. The inventive compound was initally tested using a concentration of 100 μg/ml in the first tube. The compound was added to sterile Sabourauddextrose broth as a solution in DMSO. The inoculum for the MIC determination was prepared as described for qualitative evaluation. Using a calibrated sterile wire loop, 10μl of the 10^6 CFU/ml suspension of Candida albicans was used as inoculum for each tube. The MIC value was taken as the lowest concentration of compound that inhibited the growth of the test organisms after 24 and 48 hours of incubation at 37°. The antifungal agents amphotericin-B and ketoconazole were included as standards in each screen. The results of the MIC testing for various pathogenic agents is set out in Table I."}, "[3]": {"tested_on": "Candida albicans 10231", "assay": "Minimum inhibitory concentration (MIC), twofold serial broth dilution assay, Candida albicans ATCC 10231", "type": "cell-based", "details": "ATCC10231, 24 and 48 hours at 37°", "protocol": "as §1"}, "[4]": {"tested_on": "Candida albicans WH", "assay": "Minimum inhibitory concentration (MIC), twofold serial broth dilution assay, Candida albicans WH (clinical isolate)", "type": "cell-based", "details": "24 and 48 hours at 37°", "protocol": "as §1"}, "[5]": {"tested_on": "Candida albicans", "assay": "Anticandidal activity, agar-well diffusion assay (zone of inhibition)", "type": "cell-based", "details": "three test strains of Candida albicans; pure compounds at 1 mg/ml; 37° for 24 hours", "protocol": "In vitro evaluation of the anticandidal activity of the inventive compound and compositions was carried out using the agar-well diffusion assay as follows:\nCandida albicans NIH B311 used to induce experimental disseminated candidiasis was used for the initial qualitative evaluation of anticandidal activity. The organism was grown in Sabouraud-dextrose broth (SDB) for 14 hours at 37°, at which time the cells were harvested by centrifugation (4°, 2000 rpm, 3 min). After centrifugation, the cells were washed and suspended in sterile 0.9% saline to give a final concentration of 10^6 colony forming units (CFU) per ml (adjusted using a hemocytometer). Culture plates (15×100 mm) for the qualitative assay were prepared from 25 ml of Sabouraud-dextrose agar. Using sterile cotton swabs, the plates were streaked with the suspension (10^6 CFU/ml) of Candida albicans B311. Cylindrical plugs were removed from the agar plates by means of a sterile cork borer to produce wells with a diameter of approximately 11 mm. To the well was added 100 μl of solution or suspension of an extract, fraction, or pure compound. Crude extracts and fractions were tested at a concentration of 20 mg/ml, whereas pure compounds were tested at 1 mg/ml. […] Anticandidal activity was recorded as the width (in mm) of the zone of inhibition following incubation of the plates at 37° for 24 hours. […]"}, "[6]": {"tested_on": "Candida albicans", "assay": "In vivo disseminated Candida albicans infection in mice, CFU recovered from the kidneys", "parameters": "species or system outbred mice", "details": "for % Reduction: kidney CFU versus vehicle control; for CFU/g × 10^6 (range): kidney", "protocol": "In the in vivo testing of the invention onychine, outbred mice were used. A disseminated infection of Candida albicans in the test animals was achieved by intravenous injection of 10^6 CFU of the pathogen. The organism is rapidly cleared from the blood and most tissues, except the kidney which is the primary target organ for the disseminated infection in mice. It is known than an inoculum of 10^6 CFU will produce a disseminated infection in outbred mice within […]. Onychine was administered to infected mice by intraperitoneal injection 7 hrs post-inoculation. The vehicle used for administering the compound of the invention was a mixture consisting of 50% USP water, 40% propylene glycol and 10% absolute ethonol."}, "[7]": {"details": "under varying conditions; cited from earlier work"}}}
{"smiles": "c1ccc2c(c1)-c1nccc3ccnc-2c13", "note": "[eupolauridine]", "values": [{"measurement": "anticandidal properties", "setting": "[1]", "value": "possibly remarkable anticandidal properties"}]}
{"smiles": "Cc1ccnc2c1C(=O)c1ccccc1-2", "note": "[Onychine, 1-methyl-4-azafluoren-9-one]", "values": [{"measurement": "MIC", "setting": "[2]", "value": 3.12, "unit": "µg/mL"}, {"measurement": "MIC", "setting": "[3]", "value": 1.56, "unit": "µg/mL"}, {"measurement": "MIC", "setting": "[4]", "value": 25, "unit": "µg/mL"}, {"measurement": "zone of inhibition", "setting": "[5]", "value": "remarkable zone of inhibition"}, {"measurement": "number of CFU of Candida albicans recovered from the kidneys versus vehicle treated control mice", "setting": "[6]; 0.1 mg/kg intraperitoneal 7 hrs post-inoculation", "value": "significantly lower"}, {"measurement": "% Reduction", "setting": "[6]; 0.1 mg/kg intraperitoneal, n=8, P 0.047", "value": 95.5, "unit": "%"}, {"measurement": "% Reduction", "setting": "[6]; 0.5 mg/kg intraperitoneal, n=7, P 0.082", "value": 86.7, "unit": "%"}, {"measurement": "CFU/g × 10^6 (range)", "setting": "[6]; 0.1 mg/kg intraperitoneal 7 hrs post-inoculation, n=8, range 0.05-0.3, P 0.047", "value": 0.17, "unit": "CFU/g × 10^6"}, {"measurement": "CFU/g × 10^6 (range)", "setting": "[6]; 0.5 mg/kg intraperitoneal 7 hrs post-inoculation, n=7, range 0.11-1.05, P 0.082", "value": 0.50, "unit": "CFU/g × 10^6"}]}
{"smiles": "CC1C=CC=CC=CC=CC=CC=CC=CC(OC2OC(C)C(O)C(N)C2O)CC2OC(O)(CC(O)CC(O)C(O)CCC(O)CC(O)CC(=O)OC(C)C(C)C1O)CC(O)C2C(=O)O", "note": "(centres unmarked) [amphotericin-B]", "values": [{"measurement": "side effects in humans", "setting": "[7]", "value": "fever, anorexia, nausea and vomiting, diarrhea, muscle and joint pain, phlebitis and thiophlebitis, anemia, abnormal renal function, anuria, cardiovascular distress, hypertension and hypotension"}]}
